Measurements reported in ChEMBL document CHEMBL1153714, “Isolation and characterization of tirandamycins from a marine-derived Streptomyces sp” (2009).
Values after ≈ are worked out from the molar mass of the structure shown.

Each compound was assayed on Enterococcus faecalis (assay: Antibacterial activity against vancomycin-resistant Enterococcus faecalis after 16 hrs by microtiter plate assay).
Assay type: functional

| Compound | MIC [µM] |
| --- | --- |
| CC(/C=C/C(O)=C1/C(=O)CNC1=O)=C\[C@@H](C)[C@H]1O[C@@]2(C)O[C@H](C(=O)[C@H]3O[C@]32CO)[C@@H]1C [TIRANDAMYCIN B] | 100 (≈ 43.3 µg/mL) |
| CC1=CC(=O)[C@H]2O[C@]1(C)O[C@H]([C@H](C)/C=C(C)/C=C/C(O)=C1/C(=O)CNC1=O)[C@H]2C [TIRANDAMYCIN D] | > 9 |
| CC1=CC[C@H]2O[C@]1(C)O[C@H]([C@H](C)/C=C(C)/C=C/C(O)=C1/C(=O)CNC1=O)[C@H]2C [TIRANDAMYCIN C] | 110 (≈ 42.6 µg/mL) |
| CC(/C=C/C(O)=C1/C(=O)CNC1=O)=C\[C@@H](C)[C@H]1O[C@@]2(C)O[C@H](C(=O)[C@H]3O[C@]32C)[C@@H]1C [TIRANDAMYCIN A] | 2.25 (≈ 0.939 µg/mL) |
